Results from patent US12331041B2, “GLP-1 receptor agonists and uses thereof” (Pfizer Inc., priority 2018, dated 2025).
Counter-ions that a name gives are not always drawn.

Legend:
human GLP-1R [1] = biological target: T1, human GLP-1R (Homo sapiens, UniProt P43220, G168S); assay: CHO GLP-1R Clone H6 - Assay 1 (HTRF cAMP agonist assay); type: cell-based; details: for EC50: CHO Clone H6, high GLP-1R density, cAMP, geometric mean; for Emax / Assay 1 Emax (%): CHO Clone H6, relative to saturating full agonist GLP-1 7-36 (1 μM), arithmetic mean
T1 construct: expressed in transfected cells
Method: GLP-1R-mediated agonist activity was determined with a cell-based functional assay utilizing an HTRF (Homogeneous Time-Resolved Fluorescence) cAMP detection kit (cAMP HI Range Assay Kit; CisBio cat #62AM6PEJ) that measures cAMP levels in the cell. The method is a competitive immunoassay between native cAMP produced by the cells and exogenous cAMP labeled with the dye d2, The tracer binding is visualized by a mAb anti-cAMP labeled with Cryptate. The specific signal (i.e. energy transfer) is inversely proportional to the concentration of cAMP in either standard or experimental sample.
The human GLP-1R coding sequence (NCBI Reference Sequence NP_002053.3, including naturally-occurring variant Gly168Ser) was subcloned into pcDNA3 (Invitrogen) and a cell line stably expressing the receptor was isolated (designated Clone H6).
(§1) A 1 mL sample of the cell suspension in growth media was counted on a Becton Dickinson ViCell to determine cell viability and cell count per mL. The remaining cell suspension was then adjusted with growth media to deliver 2000 viable cells per well using a Matrix Combi Multidrop reagent dispenser, and the cells were dispensed into a white 384 well tissue culture treated assay plate (Corning 3570). The assay plate was then incubated for 48 hours at 37° C. in a humidified environment in 5% carbon dioxide.
Varying concentrations of each compound to be tested (in DMSO) were diluted in assay buffer (HBSS with Calcium/Magnesium (Lonza/BioWhittaker cat #10-527F)/0.1% BSA (Sigma Aldrich cat #A7409-1L)/20 mM HEPES (Lonza/BioWhittaker cat #17-737E) containing 100 μM 3-isobutyl-1-methylxanthin (IBMX; Sigma cat #15879). The final DMSO concentration is 1%.
After 48 hours, the growth media was removed from the assay plate wells, and the cells were treated with 20 μL of the serially diluted compound in assay buffer for 30 minutes at 37° C. in a humidified environment in 5% carbon dioxide. Following the 30 minute incubation, 10 μL of labeled d2 cAMP and 10 μL of anti-cAMP antibody (both diluted 1:20 in cell lysis buffer; as described in the manufacturer's assay protocol) were added to each well of the assay plate. The plates were then incubated at room temperature and after 60 minutes, changes in the HTRF signal were read with an Envision 2104 multi-label plate reader using excitation of 330 nm and emissions of 615 and 665 nm. Raw data were converted to nM cAMP by interpolation from a cAMP standard curve (as described in the manufacturer's assay protocol) and the percent effect was determined relative to a saturating concentration of the full agonist GLP-17-36 (1 μM) included on each plate. EC50 determinations were made from agonist dose-response curves analyzed with a curve fitting program using a 4-parameter logistic dose response equation.

human GLP-1R [2] = biological target: T2, human GLP-1R (Homo sapiens, UniProt P43220, L260F); assay: CHO GLP-1R Clone C6 - Assay 2 (HTRF cAMP agonist assay); type: cell-based; details: for EC50: CHO clone C6, low GLP-1R density, cAMP, geometric mean; for Emax: CHO clone C6, relative to saturating full agonist GLP-1 (1 μM), arithmetic mean
T2 construct: expressed in transfected cells; host or cells: CHO Flp-In T-REx, clonal line C6 (pcDNA5-FRT-TO)
Method: GLP-1R-mediated agonist activity was determined with a cell-based functional assay utilizing an HTRF (Homogeneous Time-Resolved Fluorescence) cAMP detection kit (cAMP HI Range Assay Kit; Cis Bio cat #62AM6PEJ) that measures cAMP levels in the cell. The method is a competitive immunoassay between native cAMP produced by the cells and exogenous cAMP labeled with the dye d2. The tracer binding is visualized by a mAb anti-cAMP labeled with Cryptate. The specific signal (i.e. energy transfer) is inversely proportional to the concentration of cAMP in either a standard or an experimental sample.
The human GLP-1R coding sequence (NCBI Reference Sequence NP_002053.3, including naturally-occurring variant Leu260Phe) was subcloned into pcDNA5-FRT-TO and a clonal CHO cell line stably expressing a low receptor density was isolated using the Flp-In™ T-Rex™ System, as described by the manufacturer (ThermoFisher).
as §1, with “deliver 1600” for “deliver 2000”, “48 h” for “48 hours”, “environment (95% O2,” for “environment in”, “5% CO2)” for “5% carbon dioxide.”
Varying concentrations of each compound to be tested (in DMSO) were diluted in assay buffer [HBSS with Calcium/Magnesium (Lonza/BioWhittaker cat #10-527F)/0.1% BSA (Sigma Aldrich cat #A7409-1L)/20 mM HEPES (Lonza/BioWhittaker cat #17-737E)] containing 100 μM 3-isobutyl-1-methylxanthin (IBMX; Sigma cat #15879). The final DMSO concentration in the compound/assay buffer mixture is 1%.
After 48 h, the growth media was removed from the assay plate wells, and the cells were treated with 20 μL of the serially diluted compound in assay buffer for 30 min at 37° C. in a humidified environment (95% O2, 5% CO2). Following the 30 min incubation, 10 μL of labeled d2 cAMP and 10 μL of anti-cAMP antibody (both diluted 1:20 in cell lysis buffer; as described in the manufacturer's assay protocol) were added to each well of the assay plate. The plates were then incubated at room temperature and after 60 minutes, changes in the HTRF signal were read with an Envision 2104 multi-label plate reader using excitation of 330 nm and emissions of 615 and 665 nm. Raw data were converted to nM cAMP by interpolation from a cAMP standard curve (as described in the manufacturer's assay protocol) and the percent effect was determined relative to a saturating concentration of the full agonist GLP-1 (1 μM) included on each plate. EC50 determinations were made from agonist dose response curves analyzed with a curve fitting program using a 4-parameter logistic dose response equation.

T1 sequence (P43220 24-463 G168S): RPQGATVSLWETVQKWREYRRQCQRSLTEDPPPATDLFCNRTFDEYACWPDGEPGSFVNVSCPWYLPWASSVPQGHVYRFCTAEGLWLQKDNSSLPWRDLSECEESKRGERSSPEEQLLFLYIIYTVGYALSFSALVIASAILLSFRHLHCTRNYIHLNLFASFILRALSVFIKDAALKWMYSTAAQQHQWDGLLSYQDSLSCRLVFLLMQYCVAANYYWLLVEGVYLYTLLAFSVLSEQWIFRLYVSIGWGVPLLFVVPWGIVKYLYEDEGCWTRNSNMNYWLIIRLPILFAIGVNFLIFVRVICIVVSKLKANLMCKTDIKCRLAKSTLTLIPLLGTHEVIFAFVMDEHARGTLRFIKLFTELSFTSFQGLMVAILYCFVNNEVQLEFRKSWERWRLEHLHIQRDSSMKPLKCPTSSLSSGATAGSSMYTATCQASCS
T2 sequence (P43220 24-463 L260F): as the sequence (P43220 24-463 G168S) above, with S145G, L237F counted along it

| SMILES | EC50 (human GLP-1R [1]) [nM] | Emax (human GLP-1R [1]) [%] | Assay 1 Emax (%) (human GLP-1R [1]) | EC50 (human GLP-1R [2]) [nM] | Emax (human GLP-1R [2]) [%] |
| --- | --- | --- | --- | --- | --- |
| COCCn1c(C2CC23CCN(c2nc(OCc4ccc(Cl)cc4F)ncc2F)CC3)nc2cnc(C(=O)O)cc21 (single isomer, unassigned) [Example 31, 2-(6-{2-[(4-chloro-2-fluorobenzyl)oxy]-5-fluoropyrimidin-4-yl}-6-azaspiro[2.5]oct-1-yl)-1-(2-methoxyethyl)-1H-imidazo[4,5-c]pyridine-6-carboxylic acid, trifluoroacetate salt, single enantiomer; from P7] | 300 | 65 |  |  |  |
| COCCn1c(C2CC23CCN(c2nc(OCc4ccc(Cl)cc4F)ncc2F)CC3)nc2cnc(C(=O)O)cc21 (single isomer, unassigned) [Example 32, 2-(6-{2-[(4-chloro-2-fluorobenzyl)oxy]-5-fluoropyrimidin-4-yl}-6-azaspiro[2.5]oct-1-yl)-1-(2-methoxyethyl)-1H-imidazo[4,5-c]pyridine-6-carboxylic acid, trifluoroacetate salt, single enantiomer; from C23] | > 20000 |  |  |  |  |
| O=C(O)c1ccc2nc(C3CC34CCN(c3nc(OCc5ccc(Cl)cc5F)ncc3F)CC4)n(CCn3cncn3)c2c1 (single isomer, unassigned) [Example 42, 2-(6-{2-[(4-chloro-2-fluorobenzyl)oxy]-5-fluoropyrimidin-4-yl}-6-azaspiro[2.5]oct-1-yl)-1-[2-(1H-1,2,4-triazol-1-yl)ethyl]-1H-benzimidazole-6-carboxylic acid, trifluoroacetate salt, from C23] | 3400 |  | 89 |  |  |
| N#Cc1ccc(COc2ncccc2C2CCN(Cc3nc4ccc(C(=O)O)cc4n3C[C@@H]3CCO3)CC2)c(F)c1 [Example 5, 2-[(4-{2-[(4-cyano-2-fluorobenzyl)oxy]pyridin-3-yl}piperidin-1-yl)methyl]-1-[(2S)-oxetan-2-ylmethyl]-1H-benzimidazole-6-carboxylic acid] |  |  |  | 42 | 95 |
| Cn1nncc1Cn1c(CN2CCC(c3cccnc3OCc3ccc(Cl)cc3F)CC2)nc2ccc(C(=O)O)cc21 [Example 10, 2-[(4-{2-[(4-chloro-2-fluorobenzyl)oxy]pyridin-3-yl}piperidin-1-yl)methyl]-1-[(1-methyl-1H-1,2,3-triazol-5-yl)methyl]-1H-benzimidazole-6-carboxylic acid, trifluoroacetate salt] |  |  |  | 220 | 100 |
| N#Cc1ccc(COc2ncccc2C2CCN(Cc3nc4ccc(C(=O)O)nc4n3C[C@@H]3CCO3)CC2)c(F)c1 [Example 18, ammonium 2-[(4-{2-[(4-cyano-2-fluorobenzyl)oxy]pyridin-3-yl}piperidin-1-yl)methyl]-3-[(2S)-oxetan-2-ylmethyl]-3H-imidazo[4,5-b]pyridine-5-carboxylate] |  |  |  | 59 | 100 |
| N#Cc1ccc(COc2nccnc2C2CCN(Cc3nc4ccc(C(=O)O)cc4n3C[C@@H]3CCO3)CC2)c(F)c1 [Example 28, ammonium 2-[(4-{3-[(4-cyano-2-fluorobenzyl)oxy]pyrazin-2-yl}piperidin-1-yl)methyl]-1-[(2S)-oxetan-2-ylmethyl]-1H-benzimidazole-6-carboxylate] |  |  |  | 150 | 98 |
| Cn1c(CN2CCC(c3nccnc3OCc3ccc(Cl)cc3F)CC2)nc2cnc(C(=O)O)cc21 [Example 29, 2-[(4-{3-[(4-Chloro-2-fluorobenzyl)oxy]pyrazin-2-yl}piperidin-1-yl)methyl]-1-methyl-1H-imidazo[4,5-c]pyridine-6-carboxylic acid, trifluoroacetate salt] | 1800 | 65 |  |  |  |
| C[C@H]1CN(c2nccnc2OCc2ccc(Cl)cc2F)CCN1Cc1nc2ccc(C(=O)O)nc2n1C [Example 34, 2-{[(2S)-4-{3-[(4-Chloro-2-fluorobenzyl)oxy]pyrazin-2-yl}-2-methylpiperazin-1-yl]methyl}-3-methyl-3H-imidazo[4,5-b]pyridine-5-carboxylic acid, trifluoroacetate salt] | 1900 | 92 |  |  |  |

Now from value to compound:

| EC50 (human GLP-1R [1]) [nM] | Emax (human GLP-1R [1]) [%] | Assay 1 Emax (%) (human GLP-1R [1]) | EC50 (human GLP-1R [2]) [nM] | Emax (human GLP-1R [2]) [%] | SMILES |
| --- | --- | --- | --- | --- | --- |
| 2600 | 56 |  |  |  | COCCn1c(C2CC23CCN(c2cccc(OCc4ccc(Cl)cc4F)n2)CC3)nc2ncc(C(=O)O)cc21 (single isomer, unassigned) [Example 48, 2-(6-{6-[(4-chloro-2-fluorobenzyl)oxy]pyridin-2-yl}-6-azaspiro[2.5]oct-1-yl)-1-(2-methoxyethyl)-1H-imidazo[4,5-b]pyridine-6-carboxylic acid, ENT-1] |
| > 9700 | 100 |  |  |  | COCCn1c(C2CC23CCN(c2ccnc(OCc4ccc(Cl)cc4F)n2)CC3)nc2ccc(C(=O)O)cc21 (single isomer, unassigned; ent-1) [Example 46, Ammonium 2-(6-{2-[(4-chloro-2-fluorobenzyl)oxy]pyrimidin-4-yl}-6-azaspiro[2.5]oct-1-yl)-1-(2-methoxyethyl)-1H-benzimidazole-6-carboxylate, ENT-1] |
| 43 |  | 74 |  |  | N#Cc1ccc(COc2nc(N3CCC4(CC3)CC4c3nc4ccc(C(=O)O)cc4n3CC3CCO3)c(F)cc2F)c(F)c1 (single isomer, unassigned; ent-2) [Example 58] |
| 170 | 110 |  |  |  | Cn1cnc(Cn2c(CN3CCC(c4ccnc(OCc5ccc(Cl)cc5F)n4)CC3)nc3ccc(C(=O)O)cc32)c1 [Example 66, 2-[(4-{2-[(4-chloro-2-fluorobenzyl)oxy]pyrimidin-4-yl}piperidin-1-yl)methyl]-1-[(1-methyl-1H-imidazol-4-yl)methyl]-1H-benzimidazole-6-carboxylic acid] |
| 700 | 79 |  |  |  | C[C@H]1CN(c2nc(OCc3ccc(C#N)cc3)ncc2F)CCN1Cc1nc2ccc(C(=O)O)cc2n1CCC(F)(F)F [Example 70, ammonium 2-{[(2S)-4-{2-[(4-cyanobenzyl)oxy]-5-fluoropyrimidin-4-yl}-2-methylpiperazin-1-yl]methyl}-1-(3,3,3-trifluoropropyl)-1H-benzimidazole-6-carboxylate] |
